The term IC50 denotes the concentration at which inhibition is half-maximal.

T1 sequence (P14902 whole entry): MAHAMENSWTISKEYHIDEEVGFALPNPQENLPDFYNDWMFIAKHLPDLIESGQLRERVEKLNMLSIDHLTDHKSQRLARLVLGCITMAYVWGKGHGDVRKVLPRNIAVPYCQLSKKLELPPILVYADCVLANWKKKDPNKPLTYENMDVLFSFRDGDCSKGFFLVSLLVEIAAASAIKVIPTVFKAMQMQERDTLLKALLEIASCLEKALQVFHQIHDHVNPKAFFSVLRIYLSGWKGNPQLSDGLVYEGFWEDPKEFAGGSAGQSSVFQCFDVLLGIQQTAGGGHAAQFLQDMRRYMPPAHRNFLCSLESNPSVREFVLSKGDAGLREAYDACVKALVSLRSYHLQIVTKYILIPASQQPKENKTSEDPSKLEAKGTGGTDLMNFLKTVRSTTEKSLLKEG

The target in one experiment is T1, IDO (Homo sapiens (Human), UniProt P14902). Kind of experiment: Kynurenine assay in IFN-γ-stimulated Hela cells. The class given is cell-based. The note with it: 20 h, read-out: Hela Kyurenine (IC50). In outline:
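Hela cells adhered 5-6 h, then received inhibitor (top dose 30 μM, 3-fold dilutions to 1.5 nM) plus 100 ng/mL human IFN-γ to induce IDO, 20 h at 37° C. TCA added, 30 min at 50° C hydrolyses N-formylkynurenine to kynurenine. Supernatant mixed with Ehrlich reagent, 10 min RT, absorbance 490 nm.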
Consider `COc1ccc(-c2cnc(Oc3cccc4c3CCCC4)c(NC(=O)Nc3ccccc3Cl)c2C)cc1C(=O)O` [Example 3, 5-(5-(3-(2-Chlorophenyl)ureido)-4-methyl-6-(5,6,7,8-tetrahydronaphthalen-1-yloxy)pyridin-3-yl)-2-methoxybenzoic acid], for which the IC50 was 3.38 µM.

Regarding `COc1ccc(-c2ccc(Oc3ccccc3Cl)c(NC(=O)Nc3ccccc3Cl)c2)cc1C(=O)O` [Example 49, 4′-(2-chlorophenoxy)-3′-(3-(2-chlorophenyl)ureido)-4-methoxybiphenyl-3-carboxylic acid], the half-maximal inhibitory concentration (IC50) stood at 0.59 µM. Regarding `COc1ccc(-c2ccc(Oc3ccccc3C(C)C)c(NC(=O)Nc3cccc(C)c3)c2)cc1C(=O)O` [Example 65, 4′-(2-isopropylphenoxy)-4-methoxy-3′-(3-m-tolylureido)biphenyl-3-carboxylic acid], the IC50 was determined as 0.2 µM.

Regarding `COc1ccc(-c2ccc(Oc3cccc4c3OC(C)(C)C4)c(NC(=O)Nc3ccccc3C)c2)cc1C(=O)O` [Example 139, 4′-(2,2-dimethyl-2,3-dihydrobenzofuran-7-yloxy)-4-methoxy-3′-(3-o-tolylureido)biphenyl-3-carboxylic acid], the IC50 came to 0.68 µM. For the molecule `Cc1ccccc1NC(=O)Nc1cc(-c2cc(Cl)ccc2C(=O)O)ccc1Oc1ccccc1C(C)(C)C` [Example 167, 4′-(2-tert-butylphenoxy)-5-chloro-3′-(3-o-tolylureido)biphenyl-2-carboxylic acid], the IC50 is 1.67 µM. Still for that read-out and setting: with `Cc1ccccc1NC(=O)Nc1cc(-c2ccccc2-c2nnn[nH]2)ccc1Oc1ccccc1C(C)(C)C` [Example 181, 1-(4-(2-tert-butylphenoxy)-2′-(1H-tetrazol-5-yl)biphenyl-3-yl)-3-o-tolylurea] the figure was 0.09 µM; with `COc1ccc(-c2cnc(Oc3ccccc3C(C)(C)C)c(NC(=O)Nc3ccccc3Cl)c2)cc1C(=O)O` [Example 336], 0.76 µM; with `COc1cc(C(=O)O)c(-c2ccc(Oc3ccccc3C(C)(C)C)c(NC(=O)Nc3ccc(C)cc3)c2)cc1OC` [Example 165, 4′-(2-tert-butylphenoxy)-4,5-dimethoxy-3′-(3-p-tolylureido)biphenyl-2-carboxylic acid], 0.39 µM.

Another experiment addresses T1, IDO. Kind of experiment: LLE_IDO_ABS_DR (IDO assay, method not described).
Details: not given
Take `COc1ccc(-c2cnc(Oc3cccc4c3CCCC4)c(NC(=O)Nc3ccccc3Cl)c2C)cc1C(=O)O` [Example 3, 5-(5-(3-(2-Chlorophenyl)ureido)-4-methyl-6-(5,6,7,8-tetrahydronaphthalen-1-yloxy)pyridin-3-yl)-2-methoxybenzoic acid]: half-maximal inhibition (IC50) required 4.81 µM. On the same count and under the same terms, with `COc1ccc(-c2ccc(Oc3ccccc3Cl)c(NC(=O)Nc3ccccc3Cl)c2)cc1C(=O)O` [Example 49, 4′-(2-chlorophenoxy)-3′-(3-(2-chlorophenyl)ureido)-4-methoxybiphenyl-3-carboxylic acid] the figure was 2.63 µM. Take `COc1ccc(-c2ccc(Oc3ccccc3C(C)C)c(NC(=O)Nc3cccc(C)c3)c2)cc1C(=O)O` [Example 65, 4′-(2-isopropylphenoxy)-4-methoxy-3′-(3-m-tolylureido)biphenyl-3-carboxylic acid]: inhibition was half-maximal at 0.63 µM (IC50). The same measure, in the same setting: with `COc1ccc(-c2ccc(Oc3cccc4c3OC(C)(C)C4)c(NC(=O)Nc3ccccc3C)c2)cc1C(=O)O` [Example 139, 4′-(2,2-dimethyl-2,3-dihydrobenzofuran-7-yloxy)-4-methoxy-3′-(3-o-tolylureido)biphenyl-3-carboxylic acid] the figure was 2.64 µM; with `Cc1ccccc1NC(=O)Nc1cc(-c2cc(Cl)ccc2C(=O)O)ccc1Oc1ccccc1C(C)(C)C` [Example 167, 4′-(2-tert-butylphenoxy)-5-chloro-3′-(3-o-tolylureido)biphenyl-2-carboxylic acid], 3.81 µM; with `Cc1ccccc1NC(=O)Nc1cc(-c2ccccc2-c2nnn[nH]2)ccc1Oc1ccccc1C(C)(C)C` [Example 181, 1-(4-(2-tert-butylphenoxy)-2′-(1H-tetrazol-5-yl)biphenyl-3-yl)-3-o-tolylurea], 0.74 µM. Still for that read-out and setting: with `COc1ccc(-c2cnc(Oc3ccccc3C(C)(C)C)c(NC(=O)Nc3ccccc3Cl)c2)cc1C(=O)O` [Example 336] the figure was 1.11 µM; with `COc1cc(C(=O)O)c(-c2ccc(Oc3ccccc3C(C)(C)C)c(NC(=O)Nc3ccc(C)cc3)c2)cc1OC` [Example 165, 4′-(2-tert-butylphenoxy)-4,5-dimethoxy-3′-(3-p-tolylureido)biphenyl-2-carboxylic acid], 0.46 µM; with `Cc1ccc(NC(=O)Nc2cc(-c3ccccc3C(=O)O)cc(C/C=C/C(F)(F)F)c2OCCC(F)(F)F)cc1` [Example 303], 0.16 µM. On the same count and under the same terms, with `CCCCC(Oc1ccc(-c2cc(F)ccc2C(=O)O)cc1NC(=O)Nc1ccc(C)cc1)C1CCCCC1` (centres unmarked) [Example 269] the figure was 1.1 µM.

`O=C(Nc1ccccc1F)Nc1cc(-c2ccccc2C(=O)O)cc(/C=C/C=C(F)F)c1OCCC(F)(F)F` [Example 305] had an IC50 of 0.82 µM. Still for that read-out and setting: with `O=C(Nc1ccc(Cl)cc1)Nc1cc(-c2ccccc2-c2nnn[nH]2)cc(CC2CC2)c1OCCC(F)(F)F` [Example 314, 1-(4-chlorophenyl)-3-(5-(cyclopropylmethyl)-2′-(1H-tetrazol-5-yl)-4-(3,3,3-trifluoropropoxy)-[1,1′-biphenyl]-3-yl)urea] the figure was 2.36 µM; with `C/C=C/Cc1cc(-c2ccccc2-c2nnn[nH]2)cc(NC(=O)Nc2ccc(C)cc2)c1OCc1ccccc1` [Example 25, (E)-1-(4-(Benzyloxy)-5-(but-2-en-1-yl)-2′-(1H-tetrazol-5-yl)-[1,1′-biphenyl]-3-yl)-3-(p-tolyl)urea], 0.16 µM. Same read-out and setting: with `Cc1ccc(NC(=O)Nc2cc(-c3ccc(F)cc3-c3nnn[nH]3)ccc2Oc2ccccc2C(C)(C)C)cc1` [Example 197, 1-(4-(2-tert-butylphenoxy)-4′-fluoro-2′-(1H-tetrazol-5-yl)biphenyl-3-yl)-3-p-tolylurea] the figure was 0.2 µM; with `Cc1ccc(NC(=O)Nc2cc(-c3ccccc3-c3nnn[nH]3)ccc2OCc2ccccc2)cc1` [Example 28, 1-(4-(Benzyloxy)-2′-(1H-tetrazol-5-yl)-[1,1′-biphenyl]-3-yl)-3-(p-tolyl)urea], 0.25 µM; with `COc1ccc(-c2ccc(OC(C(C)C)C(C)C)c(NC(=O)Nc3ccccc3F)c2)cc1C(=O)O` [Example 12, 4′-((2,4-Dimethylpentan-3-yl)oxy)-3′-(3-(2-fluorophenyl)ureido)-4-methoxy-[1,1′-biphenyl]-3-carboxylic acid], 0.82 µM. Same read-out and setting: with `Cc1ccc(NC(=O)Nc2cc(-c3cc(F)ccc3C(=O)O)cc(C/C=C/C(F)(F)F)c2OCCC(F)(F)F)cc1` [Example 302] the figure was 0.1 µM.

In the case of `CCCCC(Oc1ccc(-c2ccccc2-c2nnn[nH]2)cc1NC(=O)Nc1ccc(C)cc1)C1CCCCC1` (centres unmarked) [Example 272], the IC50 came out at 0.1 µM.

For the molecule `Cc1ccc(NC(=O)Nc2cc(-c3ccccc3-c3nnn[nH]3)cc(CC3CC3)c2OCCC(F)(F)F)cc1` [Example 317], half-maximal inhibition (IC50) was put at 0.33 µM.

As for `C/C=C/Cc1cc(-c2cc(F)ccc2C(=O)O)cc(NC(=O)Nc2ccc(C)cc2)c1OCc1ccccc1` [Example 27, (E)-4′-(Benzyloxy)-3′-(but-2-en-1-yl)-5-fluoro-5′-(3-(p-tolyl)ureido)-[1,1′-biphenyl]-2-carboxylic acid], 0.85 µM corresponded to half-maximal inhibition (IC50). The same measure, in the same setting: with `Cc1ccc(NC(=O)Nc2cc(-c3ccccc3-c3nnn[nH]3)ccc2OC(CCC(F)(F)F)c2ccccc2)cc1` (centres unmarked) [Example 310] the figure was 1.72 µM. For `Cc1ccc(NC(=O)Nc2cc(-c3cc(F)ccc3C(=O)O)ccc2OC(CCC(F)(F)F)c2ccccc2)cc1` (centres unmarked) [Example 309], the IC50 turned out to be 0.09 µM. On the same count and under the same terms, with `CCCC(Oc1ccc(-c2ccccc2-c2nnn[nH]2)cc1NC(=O)Nc1ccc(C)cc1)c1ccc(Cl)cc1` (centres unmarked) [Example 308] the figure was 0.86 µM.

With `O=C(Nc1ccc(Cl)cc1)Nc1cc(-c2ccccc2-c2nnn[nH]2)cc(CC2CC2)c1OCC1CC1` [Example 327], inhibition was half-maximal at 0.31 µM (IC50).

In turn, `CC(C)(C)c1ccccc1Oc1ccc(-c2ccc(Cl)cc2-c2nnn[nH]2)cc1NC(=O)Nc1ccccc1Cl` [Example 198, 1-(4-(2-tert-butylphenoxy)-4′-chloro-2′-(1H-tetrazol-5-yl)biphenyl-3-yl)-3-(2-chlorophenyl)urea] showed an IC50 of 1.49 µM. As for `CCCOc1c(C/C=C/c2ccccc2)cc(-c2ccccc2C(=O)O)cc1NC(=O)Nc1ccc(C)cc1` [Example 35, 3′-Cinnamyl-4′-propoxy-5′-(3-p-tolylureido)biphenyl-2-carboxylic acid], the IC50 is 0.1 µM. `O=C(Nc1ccc(F)cc1F)Nc1cc(-c2ccccc2-c2nnn[nH]2)cc(CC2CC2)c1OCCC(F)(F)F` [Example 318] had an IC50 of 0.32 µM. On to `C=CC(c1ccccc1)c1cc(-c2ccccc2-c2nnn[nH]2)cc(NC(=O)Nc2ccc(C)cc2)c1OCCC(F)(F)F` (centres unmarked) [Example 290], for which half-maximal inhibition (IC50) was put at 1.49 µM. As to `C=CC(c1ccccc1)c1cc(-c2cc(F)ccc2C(=O)O)cc(NC(=O)Nc2ccc(C)cc2)c1OC1CCC(F)(F)CC1` (centres unmarked) [Example 292], the half-maximal inhibitory concentration (IC50) is 3.35 µM. On the same count and under the same terms, the result for `CCCOc1c(CCCc2ccccc2)cc(-c2ccccc2-c2nnn[nH]2)cc1NC(=O)Nc1ccccc1F` [Example 39, 1-(2-Fluorophenyl)-3-(5-(3-phenylpropyl)-4-propoxy-2′-(1H-tetrazol-5-yl)biphenyl-3-yl)urea] reads 0.05 µM; that for `Cc1ccc(NC(=O)Nc2cc(-c3cc(F)ccc3C(=O)O)ccc2OC(CCC(F)(F)F)c2ccc(Cl)cc2)cc1` (centres unmarked) [Example 311], 0.2 µM; that for `C=CC(c1ccccc1)c1cc(-c2ccccc2-c2nnn[nH]2)cc(NC(=O)Nc2ccc(C)cc2)c1OCC(C)C` (centres unmarked) [Example 299], 0.1 µM. Still for that read-out and setting: the result for `O=C(Nc1ccc(C2CC2)cc1)Nc1cc(-c2ccccc2-c2nnn[nH]2)cc(CC2CC2)c1OC1CCOCC1` [Example 328] reads 0.13 µM.

For `CCCOc1c(NC(=O)Nc2ccc(C3CC3)cc2)cc(-c2ccccc2-c2nnn[nH]2)cc1C1CC1` [Example 276, 1-(5-cyclopropyl-4-propoxy-2′-(1H-tetrazol-5-yl)-[1,1′-biphenyl]-3-yl)-3-(4-cyclopropylphenyl)urea], the IC50 came to 0.69 µM. Still for that read-out and setting: with `CCCC(CCC)Oc1ccc(-c2cc(F)ccc2C(=O)O)cc1NC(=O)Nc1ccc(C)cc1` [Example 15, 5-Fluoro-4′-(heptan-4-yloxy)-3′-(3-(p-tolyl)ureido)-[1,1′-biphenyl]-2-carboxylic acid] the figure was 0.38 µM; with `CCCC(CCC)Oc1ccc(-c2ccccc2C(=O)O)cc1NC(=O)Nc1ccc(C)cc1` [Example 14, 4′-(Heptan-4-yloxy)-3′-(3-(p-tolyl)ureido)-[1,1′-biphenyl]-2-carboxylic acid], 0.6 µM; with `CCCOc1c(CCCc2ccccc2)cc(-c2ccccc2-c2nnn[nH]2)cc1NC(=O)Nc1ccc(C)cc1` [Example 37, 1-(5-(3-Phenylpropyl)-4-propoxy-2′-(1H-tetrazol-5-yl)biphenyl-3-yl)-3-p-tolylurea], 0.13 µM. The same measure, in the same setting: the result for `CC/C=C/Cc1cc(-c2ccccc2-c2nnn[nH]2)cc(NC(=O)Nc2ccc(C)cc2)c1OCCC` [Example 285] reads 0.14 µM; that for `CC(C)(C)c1ccccc1Oc1ccc(-c2ccc(F)cc2-c2nnn[nH]2)cc1NC(=O)Nc1ccccc1Cl` [Example 195, 1-(4-(2-tert-butylphenoxy)-4′-fluoro-2′-(1H-tetrazol-5-yl)biphenyl-3-yl)-3-(2-chlorophenyl)urea], 1.86 µM; that for `C=CC(c1ccccc1)c1cc(-c2ccccc2C(=O)O)cc(NC(=O)Nc2ccc(C)cc2)c1OC1CCC(F)(F)CC1` (centres unmarked) [Example 291], 0.73 µM.

For `CCCC(CCC)Oc1ccc(-c2ccccc2-c2nn[nH]n2)cc1NC(=O)Nc1ccc(C)cc1` [Example 13, 1-(4-(Heptan-4-yloxy)-2′-(1H-tetrazol-5-yl)-[1,1′-biphenyl]-3-yl)-3-(p-tolyl)urea], the IC50 was determined as 0.03 µM.

On to `O=C(Nc1ccccc1F)Nc1cc(-c2cc(F)ccc2C(=O)O)cc(C/C=C/C(F)(F)F)c1OCCC(F)(F)F` [Example 282], for which the IC50 was 1.38 µM.

For the origin of these results see patent US9765018B2, “IDO inhibitors” (BRISTOL-MYERS SQUIBB COMPANY, priority 2013, dated 2017).
